This note sets out measurements from patent publication US9447157B2, “Nitration shielding peptides and methods of use thereof” (Augusta University Research Institute, Inc., priority 2013, dated 2016).

The test system of assay [1] is PKG-1α. Description: PKG activity in transfected HEK-293T cells. To be noted: SIN-1 500 μM 30 min. It counts as cell-based, human. As for the experimental part: To determine the role of tyrosine 247 and tyrosine 425 in mediating the nitration dependent inhibition of PKG-1α kinase activity, Y247F- and Y425F-PKG-1α mutants were generated and expressed in HEK-293T cells. HEK-293T cells were transiently transfected with expression plasmids containing WT-, Y247F-, or Y425F-PKG-1α for 48 h. Cells were also treated or not with SIN-1 (500 μM, 30 min). Protein extracts were immunoprecipitated using an antibody raised against PKG-1α and the level of nitrated PKG-1α determined by probing the membranes with an antiserum raised against 3-NT. The blots were then stripped and re-probed for PKG-1α to normalize for the efficiency of the immunoprecipitation.
Measurement of PKG Catalytic Activity Total PKG activity was determined using a non-radioactive immunoassay in cell lysates, according to the manufacturer's directions. […]
After incubation for 30 min at 30° C. to allow the phosphorylation of the bound substrate, an HRP conjugated anti-phosphothreonine specific antibody was added to convert a chromogenic substrate to a colorimetric substrate that was subsequently read spectrophotometrically at 450 nm. The change in absorbance reflected the relative activity of PKG in the sample. […] The kinetic constants were determined using nonlinear regression (curve fit) analysis (GraphPad Prism Software Inc).

Assay [2] has as its target T1, PKG-1α (Homo sapiens, UniProt Q13976, Y247F).
T1 sequence (Q13976 2-671 Y247F): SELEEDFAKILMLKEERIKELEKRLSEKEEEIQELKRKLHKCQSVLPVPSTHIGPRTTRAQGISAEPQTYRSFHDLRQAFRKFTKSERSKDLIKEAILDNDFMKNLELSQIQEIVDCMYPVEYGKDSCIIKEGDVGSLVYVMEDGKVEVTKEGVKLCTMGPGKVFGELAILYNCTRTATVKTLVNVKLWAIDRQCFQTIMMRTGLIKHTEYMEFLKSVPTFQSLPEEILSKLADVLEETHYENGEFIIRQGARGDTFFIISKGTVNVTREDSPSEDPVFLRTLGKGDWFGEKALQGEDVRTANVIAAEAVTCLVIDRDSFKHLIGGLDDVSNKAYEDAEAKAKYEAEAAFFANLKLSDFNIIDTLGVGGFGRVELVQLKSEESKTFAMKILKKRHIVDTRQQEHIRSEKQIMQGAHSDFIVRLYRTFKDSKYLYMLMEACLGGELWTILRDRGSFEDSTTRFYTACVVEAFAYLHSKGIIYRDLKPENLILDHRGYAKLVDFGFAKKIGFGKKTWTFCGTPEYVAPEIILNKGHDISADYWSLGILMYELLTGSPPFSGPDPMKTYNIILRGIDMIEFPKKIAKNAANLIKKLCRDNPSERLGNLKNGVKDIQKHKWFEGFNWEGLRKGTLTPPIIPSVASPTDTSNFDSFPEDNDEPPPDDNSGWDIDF
Description: [3H]cGMP binding assay. More on the design: transfected with an expression plasmid containing a full length WT-PKG-1α cDNA; made in house; host or cells: HEK-293T (methods); the results paragraph b527 says PASMC. As to conditions: SIN-1 500 μM 30 min. As for the experimental part: HEK-293T cells were transiently transfected with either the WT-PKG-1α or the Y247FPKG-1α cDNA using Effectene transfection reagent (Qiagen), according to the manufacturer's instructions. Briefly, the cells were split the day before the transfection to low cell densities (25%) and were transfected 24 h later. After 48 h of transfection, the cells were incubated in DMEM serum free media containing 1% FBS and antibiotics for 4 h and then treated with or without SIN-1 (500 μM), for 30 min. This method produced an approximate 70% transfection efficiency of HEK-293T cells, as measured using green fluorescent protein vectors. […]
The batches of supernatant were pooled, and 2 μg of anti-PKG-1α antibody per mg of protein were added to the extract and rocked at 4° C. […] After 15 min of agitation at 4° C., the beads were pelleted by centrifugation, and the supernatant containing the PKG-1α protein was collected, quantified using Bradford reagent, and stored at −80° C.
To assay the binding of cGMP to WT- and Y247F-PKG-1α the enzymes were saturated with cGMP by incubating 50 μl aliquots of the diluted PKG constructs for 60 min at room temperature with 50 μl of [^3H]cGMP and 150 μl of cGMP-binding assay mixture (25 mM K2HPO4, 25 mM KH2PO4, 1 mM EDTA, pH 6.8, 2M NaCl, 200 μM 3-isobutyl-1-methylxanthine). […] The dissociation constant (Kd) values were determined using GraphPad Prism graphics.

Turning to “3-morpholinosydnonimine N-ethylcarbamide [SIN-1]”, the “cGMP dependent PKG activity, WT- and Y425F-PKG-1α cells” value with PKG-1α [1] (HEK-293T expressing WT- and Y425F-PKG-1α) is reported as “attenuated”. In the assay with PKG-1α [1] (transfected HEK-293T), the “cGMP-independent PKG activity” value is on record as “did not alter”. Further, at PKG-1α [2], the “Maximal [3H]cGMP binding to Y247F-PKG-1α” value is listed as “but not to the Y247F-PKG-1α mutant”.
